Assay results as given in patent US20260364184A1, “COMPOUND BASED ON OXOISOINDOLINYL-SUBSTITUTED TETRAHYDROPYRIMIDINE-DIONE AND USE THEREOF” (GLUETACS THERAPEUTICS (SHANGHAI) CO., LTD., priority 2023, published 2026).

What was measured:
Type in all cases: cell-based
Conditions in all cases: hPBMC Cell; 24 hours
[1] = target: T1, WEE1 (Homo sapiens, UniProt P30291+Q96SW2); assay: Western blot degradation of WEE1
T1 construct: expression of target proteins in cells; endogenous in cells
Method: (§1) Conventional Western blot assay was performed to evaluate the effects of the compounds of the present disclosure on the expression of target proteins in cells.
(§2) (1) Cell Seeding and Protein Harvesting: The selected cells were processed according to the cell seeding procedure and protein harvesting procedure in Table II-2.
(§3) (2) To the collected supernatant, 5×SDS sample loading buffer was added, followed by denaturation at 95 °C for 5 minutes. The denatured samples were then separated by SDS-PAGE electrophoresis on a polyacrylamide gel. Proteins were transferred to a nitrocellulose membrane (0.45 μm NC membrane), blocked with blocking buffer at room temperature for 1 hour, and subjected to antibody incubation and development procedures according to the antibody manufacturer's instructions (Cell Signaling Technology).
(§4) Half-Maximal Degradation Concentration value (the drug concentration required for degrading proteins by 50%, abbreviated as DC50) reads method: comparing the grayscale values of Western blot bands from drug-treated samples with those from blank DMSO-treated controls, and identifying the drug concentration range at which the grayscale value is half that of the DMSO-treated control bands.
(§5) DC50 values can be calculated using ImageJ software to measure grayscale values of Western blot bands from drug-treated samples. The concentration-response curve is fitted to estimate the drug concentration corresponding to half the grayscale value.
(§6) Target protein remaining (%) refers to the percentage of target protein remaining in cells after treatment with protein degrader compounds.
(§7) Calculation method for target protein remaining (%): Use ImageJ software to measure grayscale values of Western blot bands from drug (protein degrader)-treated samples. The grayscale value of drug-treated bands is divided by that of internal control protein bands, and the resulting quotient is normalized to obtain the relative percentage of remaining target protein after protein degrader treatment.
(§8) Target protein degradation rate (%)=1−target protein remaining (%).

[2] = target: T2, IKZF1 (Homo sapiens, UniProt Q13422+Q96SW2); assay: Western blot degradation of IKZF1
T2 construct: expression of target proteins in cells; endogenous in cells
T2 sequence (Q13422 whole entry): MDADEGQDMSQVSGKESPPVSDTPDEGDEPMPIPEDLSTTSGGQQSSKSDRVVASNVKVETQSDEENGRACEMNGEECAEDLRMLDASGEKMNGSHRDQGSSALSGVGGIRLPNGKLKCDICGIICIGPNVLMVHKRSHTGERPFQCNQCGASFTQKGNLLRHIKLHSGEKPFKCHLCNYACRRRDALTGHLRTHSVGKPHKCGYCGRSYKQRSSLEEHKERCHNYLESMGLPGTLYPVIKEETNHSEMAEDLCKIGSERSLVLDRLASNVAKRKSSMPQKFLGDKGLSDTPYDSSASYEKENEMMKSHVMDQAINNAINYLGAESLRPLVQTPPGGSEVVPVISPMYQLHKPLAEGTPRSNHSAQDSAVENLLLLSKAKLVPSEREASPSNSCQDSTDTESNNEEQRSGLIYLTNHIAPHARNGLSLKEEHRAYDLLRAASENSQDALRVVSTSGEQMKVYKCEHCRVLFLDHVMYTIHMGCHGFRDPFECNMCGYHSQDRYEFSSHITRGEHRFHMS
T2 sequence (Q96SW2 whole entry): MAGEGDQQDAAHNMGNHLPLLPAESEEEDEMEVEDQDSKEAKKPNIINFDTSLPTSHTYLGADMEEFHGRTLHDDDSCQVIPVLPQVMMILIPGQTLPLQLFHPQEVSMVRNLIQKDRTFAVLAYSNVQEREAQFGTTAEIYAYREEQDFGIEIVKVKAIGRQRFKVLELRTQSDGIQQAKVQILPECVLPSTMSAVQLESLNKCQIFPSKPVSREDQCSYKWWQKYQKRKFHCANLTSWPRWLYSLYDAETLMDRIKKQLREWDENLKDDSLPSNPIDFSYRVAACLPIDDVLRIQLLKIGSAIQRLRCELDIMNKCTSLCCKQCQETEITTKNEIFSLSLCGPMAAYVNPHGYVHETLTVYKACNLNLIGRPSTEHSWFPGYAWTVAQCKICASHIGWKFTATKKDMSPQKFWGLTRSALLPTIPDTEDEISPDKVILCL
T2 sequence (Q16531 whole entry partner): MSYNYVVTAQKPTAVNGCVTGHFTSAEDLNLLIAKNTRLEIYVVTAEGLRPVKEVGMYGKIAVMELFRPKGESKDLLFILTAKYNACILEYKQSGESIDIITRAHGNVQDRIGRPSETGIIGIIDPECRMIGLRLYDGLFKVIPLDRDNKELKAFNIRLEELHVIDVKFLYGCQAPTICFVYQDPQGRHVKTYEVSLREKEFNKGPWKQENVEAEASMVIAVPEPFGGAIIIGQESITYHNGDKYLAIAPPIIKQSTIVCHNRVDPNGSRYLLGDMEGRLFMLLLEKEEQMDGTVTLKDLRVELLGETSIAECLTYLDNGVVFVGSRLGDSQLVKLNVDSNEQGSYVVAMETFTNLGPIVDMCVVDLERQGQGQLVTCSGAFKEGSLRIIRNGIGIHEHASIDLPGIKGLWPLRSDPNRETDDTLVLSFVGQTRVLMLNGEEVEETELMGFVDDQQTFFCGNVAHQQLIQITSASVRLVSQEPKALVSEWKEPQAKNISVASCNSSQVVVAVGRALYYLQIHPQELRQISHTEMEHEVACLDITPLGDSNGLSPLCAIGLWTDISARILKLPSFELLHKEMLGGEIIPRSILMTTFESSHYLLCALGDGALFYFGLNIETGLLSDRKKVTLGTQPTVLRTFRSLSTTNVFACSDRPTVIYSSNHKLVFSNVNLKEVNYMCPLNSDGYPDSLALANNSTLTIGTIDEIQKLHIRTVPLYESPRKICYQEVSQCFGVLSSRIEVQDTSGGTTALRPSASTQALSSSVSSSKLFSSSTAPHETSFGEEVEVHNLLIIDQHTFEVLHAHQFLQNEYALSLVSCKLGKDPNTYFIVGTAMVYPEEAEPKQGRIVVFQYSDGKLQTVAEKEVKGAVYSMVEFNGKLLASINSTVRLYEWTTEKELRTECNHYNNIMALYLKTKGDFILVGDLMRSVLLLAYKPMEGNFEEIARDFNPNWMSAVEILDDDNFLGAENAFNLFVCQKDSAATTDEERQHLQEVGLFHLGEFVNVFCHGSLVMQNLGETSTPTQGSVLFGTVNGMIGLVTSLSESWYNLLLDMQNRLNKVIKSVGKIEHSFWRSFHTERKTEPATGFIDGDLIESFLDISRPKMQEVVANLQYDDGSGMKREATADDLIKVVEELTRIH
Method: as §1, §2, §3, §4, §5, §6, §7, §8

[3] = target: T3, IKZF2 (Homo sapiens, UniProt Q96SW2+Q9UKS7); assay: Western blot degradation of IKZF2
T3 construct: expression of target proteins in cells; endogenous in cells
T3 sequence (Q9UKS7 whole entry): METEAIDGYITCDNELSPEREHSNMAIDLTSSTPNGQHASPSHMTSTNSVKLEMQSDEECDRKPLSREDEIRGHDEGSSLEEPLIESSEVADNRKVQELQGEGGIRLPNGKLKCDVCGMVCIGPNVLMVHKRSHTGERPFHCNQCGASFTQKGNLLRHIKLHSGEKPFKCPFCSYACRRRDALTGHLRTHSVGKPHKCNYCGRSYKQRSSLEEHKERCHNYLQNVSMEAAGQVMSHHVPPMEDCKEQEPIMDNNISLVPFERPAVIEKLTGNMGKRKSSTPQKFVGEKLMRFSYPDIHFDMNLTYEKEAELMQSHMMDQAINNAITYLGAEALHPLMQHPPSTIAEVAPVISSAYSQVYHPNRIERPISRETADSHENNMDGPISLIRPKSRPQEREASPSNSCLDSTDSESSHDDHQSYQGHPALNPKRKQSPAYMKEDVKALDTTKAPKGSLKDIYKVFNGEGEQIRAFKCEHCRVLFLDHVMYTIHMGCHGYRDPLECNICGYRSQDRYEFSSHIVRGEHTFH
T3 sequence (Q96SW2 whole entry): as the sequence (Q96SW2 whole entry) above
T3 sequence (Q16531 whole entry partner): as the sequence (Q16531 whole entry partner) above
Method: as §1, §2, §3, §4, §5, §6, §7, §8

[4] = target: T4, IKZF3 (Homo sapiens, UniProt Q96SW2+Q9UKT9); assay: Western blot degradation of IKZF3
T4 construct: expression of target proteins in cells; endogenous in cells
T4 sequence (Q9UKT9 whole entry): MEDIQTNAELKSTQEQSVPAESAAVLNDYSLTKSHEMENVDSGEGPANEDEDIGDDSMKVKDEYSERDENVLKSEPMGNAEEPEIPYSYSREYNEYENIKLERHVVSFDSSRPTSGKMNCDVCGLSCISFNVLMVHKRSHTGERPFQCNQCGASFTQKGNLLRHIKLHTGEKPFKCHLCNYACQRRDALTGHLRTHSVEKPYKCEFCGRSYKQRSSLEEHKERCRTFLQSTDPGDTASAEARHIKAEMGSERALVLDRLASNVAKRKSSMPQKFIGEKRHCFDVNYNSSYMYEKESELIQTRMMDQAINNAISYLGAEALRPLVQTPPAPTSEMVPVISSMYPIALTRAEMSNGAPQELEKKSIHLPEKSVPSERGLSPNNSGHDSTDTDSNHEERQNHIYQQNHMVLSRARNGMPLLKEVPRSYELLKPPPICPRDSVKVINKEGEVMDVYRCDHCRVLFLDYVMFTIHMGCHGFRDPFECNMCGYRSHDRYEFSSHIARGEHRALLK
T4 sequence (Q96SW2 whole entry): as the sequence (Q96SW2 whole entry) above
T4 sequence (Q16531 whole entry partner): as the sequence (Q16531 whole entry partner) above
Method: as §1, §2, §3, §4, §5, §6, §7, §8

[5] = target: T5, CK1α (Homo sapiens, UniProt P48729+Q96SW2); assay: Western blot degradation of CK1α
T5 construct: expression of target proteins in cells; endogenous in cells
T5 sequence (P48729 whole entry): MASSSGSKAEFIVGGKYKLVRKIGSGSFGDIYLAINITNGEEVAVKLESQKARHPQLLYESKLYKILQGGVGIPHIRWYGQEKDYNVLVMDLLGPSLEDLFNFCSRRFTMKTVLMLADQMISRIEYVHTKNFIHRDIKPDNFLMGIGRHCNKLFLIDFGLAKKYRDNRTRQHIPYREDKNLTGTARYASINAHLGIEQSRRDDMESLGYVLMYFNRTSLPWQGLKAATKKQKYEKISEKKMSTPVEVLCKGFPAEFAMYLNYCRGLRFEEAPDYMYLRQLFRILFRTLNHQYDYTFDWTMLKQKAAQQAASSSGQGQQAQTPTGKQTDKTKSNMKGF
T5 sequence (Q96SW2 whole entry): as the sequence (Q96SW2 whole entry) above
T5 sequence (Q16531 whole entry partner): as the sequence (Q16531 whole entry partner) above
Method: as §1, §2, §3, §4, §5, §6, §7, §8

[6] = target: T6, GSPT1 (Homo sapiens, UniProt P15170+Q96SW2); assay: Western blot degradation of GSPT1
T6 construct: expression of target proteins in cells; endogenous in cells
T6 sequence (P15170 whole entry): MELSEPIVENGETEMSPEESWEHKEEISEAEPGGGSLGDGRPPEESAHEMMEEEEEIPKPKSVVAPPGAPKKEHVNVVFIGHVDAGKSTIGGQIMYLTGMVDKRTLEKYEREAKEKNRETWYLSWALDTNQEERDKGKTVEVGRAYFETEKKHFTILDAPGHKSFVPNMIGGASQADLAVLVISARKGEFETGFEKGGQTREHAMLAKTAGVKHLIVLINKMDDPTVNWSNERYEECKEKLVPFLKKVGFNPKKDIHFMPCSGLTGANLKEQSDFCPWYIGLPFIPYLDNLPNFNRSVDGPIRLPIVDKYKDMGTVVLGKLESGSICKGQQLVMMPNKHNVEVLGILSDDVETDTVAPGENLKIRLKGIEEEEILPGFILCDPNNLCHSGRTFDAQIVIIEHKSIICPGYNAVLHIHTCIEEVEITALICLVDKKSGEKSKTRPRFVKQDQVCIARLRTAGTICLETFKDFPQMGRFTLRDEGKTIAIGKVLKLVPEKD
T6 sequence (Q96SW2 whole entry): as the sequence (Q96SW2 whole entry) above
T6 sequence (Q16531 whole entry partner): as the sequence (Q16531 whole entry partner) above
Method: as §1, §2, §3, §4, §5, §6, §7, §8

| SMILES | Degradation of substrate protein WEE1 (substrate protein remaining %) [1] | Degradation of substrate protein IKZF1 (substrate protein remaining %) [2] | Degradation of substrate protein IKZF2 (substrate protein remaining %) [3] | Degradation of substrate protein IKZF3 (substrate protein remaining %) [4] | Degradation of substrate protein CK1α (substrate protein remaining %) [5] | Degradation of substrate protein GSPT1 (substrate protein remaining %) [6] |
| --- | --- | --- | --- | --- | --- | --- |
| O=C1CCN(N2Cc3cc(CO)ccc3C2=O)C(=O)N1 [GT-05567, 1-(5-(hydroxymethyl)-1-oxoisoindolin-2-yl)dihydropyrimidine-2,4(1H, 3H)-dione] | A (0%≤substrate protein remaining %≤80%) | A (0%≤substrate protein remaining %≤80%) | B (80%<substrate protein remaining %≤100%) | A (0%≤substrate protein remaining %≤80%) | A (0%≤substrate protein remaining %≤80%) | A (0%≤substrate protein remaining %≤80%) |
| O=C1CCN(N2C(=O)c3ccc(N4CCNCC4)cc3C2=O)C(=O)N1 [GT-05581, 2-(2,4-dioxotetrahydropyrimidin-1(2H)-yl)-5-(piperazin-1-yl)isoindoline-1,3-dione] | A (0%≤substrate protein remaining %≤80%) | B (80%<substrate protein remaining %≤100%) | B (80%<substrate protein remaining %≤100%) | A (0%≤substrate protein remaining %≤80%) | A (0%≤substrate protein remaining %≤80%) | A (0%≤substrate protein remaining %≤80%) |
| O=CC1CCN(c2ccc3c(c2)C(=O)N(N2CCC(=O)NC2=O)C3=O)CC1 [GT-05580, 1-(2-(2,4-dioxotetrahydropyrimidin-1(2H)-yl)-1,3-dioxoisoindolin-5-yl)piperidine-4-carbaldehyde] | A (0%≤substrate protein remaining %≤80%) | B (80%<substrate protein remaining %≤100%) | A (0%≤substrate protein remaining %≤80%) | A (0%≤substrate protein remaining %≤80%) | A (0%≤substrate protein remaining %≤80%) | A (0%≤substrate protein remaining %≤80%) |
| O=C1CCN(N2Cc3c(O)cccc3C2=O)C(=O)N1 [GT-05570, 1-(4-hydroxy-1-oxoisoindolin-2-yl)dihydropyrimidine-2,4(1H, 3H)-dione] | A (0%≤substrate protein remaining %≤80%) | A (0%≤substrate protein remaining %≤80%) | A (0%≤substrate protein remaining %≤80%) | A (0%≤substrate protein remaining %≤80%) | A (0%≤substrate protein remaining %≤80%) | A (0%≤substrate protein remaining %≤80%) |
| O=C1CCN(N2C(=O)c3ccc(N4CCNCC4)c(F)c3C2=O)C(=O)N1 [GT-05592, 2-(2,4-dioxotetrahydropyrimidin-1(2H)-yl)-4-fluoro-5-(piperazin-1-yl)isoindoline-1,3-dione] | B (80%<substrate protein remaining %≤100%) | B (80%<substrate protein remaining %≤100%) | B (80%<substrate protein remaining %≤100%) | A (0%≤substrate protein remaining %≤80%) | B (80%<substrate protein remaining %≤100%) | B (80%<substrate protein remaining %≤100%) |
| O=C1CCN(N2C(=O)c3ccc(F)cc3C2=O)C(=O)N1 [GT-05575, 2-(2,4-dioxotetrahydropyrimidin-1(2H)-yl)-5-fluoroisoindoline-1,3-dione] | A (0%≤substrate protein remaining %≤80%) | B (80%<substrate protein remaining %≤100%) | A (0%≤substrate protein remaining %≤80%) | A (0%≤substrate protein remaining %≤80%) | A (0%≤substrate protein remaining %≤80%) | A (0%≤substrate protein remaining %≤80%) |
| O=C1CCN(N2C(=O)c3cccc(F)c3C2=O)C(=O)N1 [GT-05576, 2-(2,4-dioxotetrahydropyrimidin-1(2H)-yl)-4-fluoroisoindoline-1,3-dione] | A (0%≤substrate protein remaining %≤80%) | B (80%<substrate protein remaining %≤100%) | A (0%≤substrate protein remaining %≤80%) | A (0%≤substrate protein remaining %≤80%) | A (0%≤substrate protein remaining %≤80%) | A (0%≤substrate protein remaining %≤80%) |
| O=C1CCN(N2C(=O)c3ccc(N4CCC(N5CCNCC5)C(F)(F)C4)cc3C2=O)C(=O)N1 (stereo not drawn) [GT-04990, 5-(3,3-difluoro-4-(piperazin-1-yl)piperidin-1-yl)-2-(2,4-dioxotetrahydropyrimidin-1(2H)-yl)isoindoline-1,3-dione] | A (0%≤substrate protein remaining %≤80%) | B (80%<substrate protein remaining %≤100%) | B (80%<substrate protein remaining %≤100%) | B (80%<substrate protein remaining %≤100%) | B (80%<substrate protein remaining %≤100%) | A (0%≤substrate protein remaining %≤80%) |
| O=C1CCN(N2C(=O)c3ccc(N4C5CNCC4C5)cc3C2=O)C(=O)N1 [GT-05588, 5-(3,6-diazabicyclo[3.1.1]heptan-6-yl)-2-(2,4-dioxotetrahydropyrimidin-1(2H)-yl)isoindoline-1,3-dione] | B (80%<substrate protein remaining %≤100%) | B (80%<substrate protein remaining %≤100%) | B (80%<substrate protein remaining %≤100%) | A (0%≤substrate protein remaining %≤80%) | B (80%<substrate protein remaining %≤100%) | B (80%<substrate protein remaining %≤100%) |
| O=CC1CCN(C2CCN(c3ccc4c(c3)C(=O)N(N3CCC(=O)NC3=O)C4=O)CC2)CC1 [GT-05595, 1′-(2-(2,4-dioxotetrahydropyrimidin-1(2H)-yl)-1,3-dioxoisoindolin-5-yl)-[1,4′-bipiperidine]-4-carbaldehyde] | B (80%<substrate protein remaining %≤100%) | B (80%<substrate protein remaining %≤100%) | A (0%≤substrate protein remaining %≤80%) | B (80%<substrate protein remaining %≤100%) | B (80%<substrate protein remaining %≤100%) | B (80%<substrate protein remaining %≤100%) |
| O=C1CCN(N2C(=O)c3ccc(CO)cc3C2=O)C(=O)N1 [GT-04536, 2-(2,4-dioxotetrahydropyrimidin-1(2H)-yl)-5-(hydroxymethyl)isoindoline-1,3-dione] | B (80%<substrate protein remaining %≤100%) | B (80%<substrate protein remaining %≤100%) | B (80%<substrate protein remaining %≤100%) | B (80%<substrate protein remaining %≤100%) | B (80%<substrate protein remaining %≤100%) | A (0%≤substrate protein remaining %≤80%) |
